According to ChEMBL document CHEMBL1134483, “Quinazolin-4-one alpha-amino-3-hydroxy-5-methyl-4-isoxazolepropionic acid (AMPA) receptor antagonists: structure-activity relationship of the C-2 side chain tether” (J Med Chem, 2001):

Target: Glutamate receptor ionotropic, AMPA (Rattus norvegicus, UniProt P19490+P19491+P19492+P19493)
Assay: Inhibition of Ca 2+ Influx in cultured rat cerebellar granule cells, mediated by ionotropic glutamate receptor AMPA
Format: functional

Row | SMILES | IC50
1 | O=c1c2cc(F)ccc2nc(/C(O)=C/c2ccccc2F)n1-c1ccccc1Cl | > 30000 nM
2 | O=c1c2cc(F)ccc2nc(COc2ccccc2F)n1-c1ccccc1Cl | > 10000 nM
3 | CC(=O)N(Cc1nc2ccc(F)cc2c(=O)n1-c1ccccc1Cl)c1ccccc1F | > 3000 nM
4 | O=c1c2cc(F)ccc2nc(CNc2ccccc2F)n1-c1ccccc1Cl | 13 nM
5 | N#Cc1ccccc1NCc1nc2ccc(F)cc2c(=O)n1-c1ccccc1Cl | 42 nM
6 | Cc1cccc(NCc2nc3ccc(F)cc3c(=O)n2-c2ccccc2Cl)c1 | 213 nM
7 | CN(Cc1nc2ccc(F)cc2c(=O)n1-c1ccccc1Cl)c1ccccc1F | 2000 nM
8 | O=c1c2cc(F)ccc2nc(CNCc2ccccc2F)n1-c1ccccc1Cl | > 300 nM
9 | O=c1c2cc(F)ccc2nc(CC(O)c2ccccc2F)n1-c1ccccc1Cl (stereo in doubt; 3a) | 240 nM
10 | O=c1c2cc(F)ccc2nc(CC(O)c2ccccc2F)n1-c1ccccc1Cl (stereo in doubt; 3b) | > 3000 nM
